Experimental data as given in ChEMBL document CHEMBL2346631, “Thiazolidine-2,4-diones: progress towards multifarious applications” (Bioorg Med Chem, 2013).

System: Mus musculus
Assay: Hypoglycemic activity in KKAy mouse assessed as reduction of blood glucose level at 38 mg/kg/day, po relative to control
Format: functional
Design: scale not given: the % may be the effect or the level left

## Cc1oc(-c2ccccc2)nc1CCOc1ccc(CC2C(=O)NOC2=O)cc1 (stereo unspecified) [REGLITAZAR]
  Activity: 25%
